Data from patent publication US7982053B2, “Peptide deformylase inhibitors” (GlaxoSmithKline LLC, priority 2005, dated 2011).

Tested on: Mycobacterium tuberculosis H37Rv
Test: Mycobacterium tuberculosis Susceptibility Assay (Resazurin)
Format: cell-based
Conditions: 7H9+ADC medium, 37° C., read-out: MIC (minimal inhibitory concentration)

SMILES	MIC [µg/mL]
O=CN(O)C[C@@H](CC1CCCC1)C(=O)N1CCC[C@H]1C(=O)NC(=O)c1ccc(N2CCOCC2)nc1 [Example 20, N-[1-((2R)-3-cyclopentyl-2-{[formyl(hydroxy)amino]methyl}propanoyl)-L-prolyl]-6-(4-morpholinyl)-3-pyridinecarboxamide]	≤ 32
CC(=O)NC(=O)[C@@H]1CCCN1C(=O)[C@H](CC1CCCC1)CN(O)C=O [Example 2, N-acetyl-1-((2R)-3-cyclopentyl-2-{[formyl(hydroxy)amino]methyl}propanoyl)-L-prolinamide]	≤ 32
O=CN(O)C[C@@H](CC1CCCC1)C(=O)N1CCC[C@H]1C(=O)NC(=O)c1ccccc1F [Example 10, 1-((2R)-3-cyclopentyl-2-{[formyl(hydroxy)amino]methyl}propanoyl)-N-[(2-fluorophenyl)carbonyl]-L-prolinamide]	≤ 32
Cc1cc(C(=O)NC(=O)[C@@H]2CCCN2C(=O)[C@H](CC2CCCC2)CN(O)C=O)n(C)n1 [Example 8, 1-((2R)-3-cyclopentyl-2-{[formyl(hydroxy)amino]methyl}propanoyl)-N-[(1,3-dimethyl-1H-pyrazol-5-yl)carbonyl]-L-prolinamide]	≤ 32
O=CN(O)C[C@@H](CC1CCCC1)C(=O)N1CCC[C@H]1C(=O)NC(=O)c1ccccc1 [Example 3, 1-((2R)-3-cyclopentyl-2-{[formyl(hydroxy)amino]methyl}propanoyl)-N-(phenylcarbonyl)-L-prolinamide]	≤ 32
N#Cc1cccc(C(=O)NC(=O)[C@@H]2CCCN2C(=O)[C@H](CC2CCCC2)CN(O)C=O)c1 [Example 14, N-[(3-cyanophenyl)carbonyl]-1-((2R)-3-cyclopentyl-2-{[formyl(hydroxy)amino]methyl}propanoyl)-L-prolinamide]	≤ 32
Cc1ccc(C(=O)NC(=O)[C@@H]2CCCN2C(=O)[C@H](CC2CCCC2)CN(O)C=O)cc1F [Example 12]	≤ 32
Cc1cc(C(=O)NC(=O)[C@@H]2CCCN2C(=O)[C@H](CC2CCCC2)CN(O)C=O)no1 [Example 9, 1-((2R)-3-cyclopentyl-2-{[formyl(hydroxy)amino]methyl}propanoyl)-N-[(5-methyl-3-isoxazolyl)carbonyl]-L-prolinamide]	≤ 32
O=CN(O)C[C@@H](CC1CCCC1)C(=O)N1CCC[C@H]1C(=O)NC(=O)c1c(F)cccc1F [Example 18, 1-((2R)-3-cyclopentyl-2-{[formyl(hydroxy)amino]methyl}propanoyl)-N-[(2,6-difluorophenyl)carbonyl]-L-prolinamide]	≤ 32
O=CN(O)C[C@@H](CC1CCCC1)C(=O)N1CCC[C@H]1C(=O)NC(=O)c1cccc(F)c1 [Example 11, 1-((2R)-3-cyclopentyl-2-{[formyl(hydroxy)amino]methyl}propanoyl)-N-[(3-fluorophenyl)carbonyl]-L-prolinamide]	≤ 32
COCC(=O)NC(=O)[C@@H]1CCCN1C(=O)[C@H](CC1CCCC1)CN(O)C=O [Example 5, 1-((2R)-3-cyclopentyl-2-{[formyl(hydroxy)amino]methyl}propanoyl)-N-[(methyloxy)acetyl]-L-prolinamide]	≤ 32
N[C@H]1CC[C@H](OC(=O)NC(=O)[C@@H]2CCCN2C(=O)[C@H](CC2CCCC2)CN(O)C=O)CC1 [Example 19, N-{[(trans-4-aminocyclohexyl)oxy]carbonyl}-1-((2R)-3-cyclopentyl-2-{[formyl(hydroxy)amino]methyl}propanoyl)-L-prolinamide]	≤ 32
O=CN(O)C[C@@H](CC1CCCC1)C(=O)N1CCC[C@H]1C(=O)NC(=O)c1ccncc1 [Example 17, N-[1-((2R)-3-cyclopentyl-2-{[formyl(hydroxy)amino]methyl}propanoyl)-L-prolyl]-4-pyridinecarboxamide]	≤ 32
O=CN(O)C[C@@H](CC1CCCC1)C(=O)N1CCC[C@H]1C(=O)NC(=O)c1cc(F)ccc1F [Example 15, 1-((2R)-3-cyclopentyl-2-{[formyl(hydroxy)amino]methyl}propanoyl)-N-[(2,5-difluorophenyl)carbonyl]-L-prolinamide]	≤ 32
O=CN(O)C[C@@H](CC1CCCC1)C(=O)N1CCC[C@H]1C(=O)NC(=O)c1ccc(F)cc1 [Example 1, 1-((2R)-3-cyclopentyl-2-{[formyl(hydroxy)amino]methyl}propanoyl)-N-[(4-fluorophenyl)carbonyl]-L-prolinamide]	≤ 32
O=CN(O)C[C@@H](CC1CCCC1)C(=O)N1CCC[C@H]1C(=O)NC(=O)c1ccc(C(F)(F)F)nc1 [Example 6, N-[1-((2R)-3-cyclopentyl-2-{[formyl(hydroxy)amino]methyl}propanoyl)-L-prolyl]-6-(trifluoromethyl)-3-pyridinecarboxamide]	≤ 32
Cc1cc(C(=O)NC(=O)[C@@H]2CCCN2C(=O)[C@H](CC2CCCC2)CN(O)C=O)nn1C [Example 7, 1-((2R)-3-cyclopentyl-2-{[formyl(hydroxy)amino]methyl}propanoyl)-N-[(1,5-dimethyl-1H-pyrazol-3-yl)carbonyl]-L-prolinamide]	≤ 32
